Test results published in paper PMC8997995, “Amphiphilic Cell-Penetrating Peptides Containing Natural and Unnatural Amino Acids as Drug Delivery Agents” (Cells, 2022).
Non-standard residues stand in square brackets, D forms with d. Residues, ends and D or L forms follow the SMILES beside them. Dip = N[C@H](C(=O)O)C(c1ccccc1)c1ccccc1

Experiments:
CCRF-CEM cells = experiment: In vitro cytotoxicity (MTS) in CCRF-CEM cells; format: cell-based, human; conditions: 25 µM, MTS, n = 3
Description: SK-OV-3, CCRF-CEM, HEK-293, MDA-MB-468, LLC-PK1, and MES-SA were used to determine the cytotoxicity of the synthesized linear and cyclic peptides. About 5000, 10,000, and 50,000 cells were seeded for SK-OV-3, HEK-293, and CCRF-CEM cells, respectively, in 0.1 mL of medium per well of 96-well plates. An appropriate medium was used for each cell line (SK-OV-3: McCoy’s 5A with L-glutamine containing fetal bovine serum (FBS) (10%) and penicillin or streptomycin (1%); CCRF-CEM: RPMI-1640 medium with L-glutamine and sodium bicarbonate containing FBS (10%) and penicillin or streptomycin (1%); MDA-MB-468 cells: DMEM/F12 (1:1) (1×) with L-glutamine and 15 mM HEPES containing FBS (10%) and penicillin or streptomycin (1%); LLC-PK1 cells: Dulbecco’s Modified Eagle’s Medium with 4500 mg/L glucose, L-glutamine and sodium bicarbonate, without sodium pyruvate liquid containing FBS (10%) and penicillin or streptomycin (1%); MES-SA cells: consisting of half SK-OV-3 and half CCRF-CEM media; and HEK-293 cells: Minimum Essential Medium Eagle with Earle’s salts and sodium bicarbonate, without L-glutamine containing FBS (10%) and penicillin or streptomycin (1%)). Then, 20 µL of peptides containing 5% DMSO in water were added to each well.
Adhesive cells were detached with 0.05% trypsin/EDTA after 15 min. The suspended cells were seeded in the medium 24 h prior to the experiment according to the previously reported procedure. The medium was changed before adding the peptides for adherent cells. Each concentration 5, 10, 25, 50, and 166 µM (containing 0.8% DMSO) had triplicate wells to minimize possible errors. […] The cell viability was measured by utilizing Multi-Mode Microplate Reader (SpectraMax M5 model, Molecular Devices, San Jose, CA, USA) after adding 20 µL of the MTS reagent to each well and incubating for 3 additional hours. […] The protocol manager was selected “endpoint” on the spectrophotometer’s software (SoftMax Pro 7). The 96-well plates were inserted inside spectrophotometer, and the data were acquired. The percentage of cell viability was calculated using the following equation:(1) =(Average OD values of samples treated with the compound /Average OD values of no treatment samples )∗100

LLC-PK1 cells = experiment: In vitro cytotoxicity (MTS) in LLC-PK1 cells; format: cell-based, pig; conditions: LLC-PK1, 10 µM, 24 h and 72 h incubation
Description: SK-OV-3, CCRF-CEM, HEK-293, MDA-MB-468, LLC-PK1, and MES-SA were used to determine the cytotoxicity of the synthesized linear and cyclic peptides. About 5000, 10,000, and 50,000 cells were seeded for SK-OV-3, HEK-293, and CCRF-CEM cells, respectively, in 0.1 mL of medium per well of 96-well plates. […]
Adhesive cells were detached with 0.05% trypsin/EDTA after 15 min. […] The cell viability was measured by utilizing Multi-Mode Microplate Reader (SpectraMax M5 model, Molecular Devices, San Jose, CA, USA) after adding 20 µL of the MTS reagent to each well and incubating for 3 additional hours. […] The percentage of cell viability was calculated using the following equation:(1) =(Average OD values of samples treated with the compound /Average OD values of no treatment samples )∗100

MDA-MB-231 cells [1] = experiment: Cellular uptake of F’-siRNA by flow cytometry in MDA-MB-231 cells; format: cell-based, human; conditions: MDA-MB-231, F’-siRNA 36 nM, n = 3
MDA-MB-231 cells [2] = experiment: Confocal microscopy of cellular uptake; format: cell-based, human; conditions: MDA-MB-231, F’-GpYEEI 2 µM + peptide 10 μM, 3 h, 37 °C
Description: Coverslips were placed in a 6-well plate wells and covered with 2 mL of media. Human epithelial mammary gland/breast adenocarcinoma cells (MDA-MB-231, ATCC No. HTB-26) were used. 200,000 cells per well were seeded with DMEM media low glucose (4 mM L-glutamine, 1000 mg/L glucose, and 110 mg/L sodium pyruvate) overnight on a cover glass in 6-well plates. The cells were treated with the physical mixture of F’-GpYEEI and [DipR]5 (10 μM) or F’-[K(DipR)5] in DMEM media low glucose without FBS and incubated for 3 h at 37 °C in a humidified atmosphere of 5% CO2. Next, the media was removed, and cells were washed three times with 2 mL PBS in each well. Cells were fixed in 2 mL of 3.7% formaldehyde for 10 min and were washed 3 times in PBS (pH 7.6). 1 mL of the Texas red solution was pipetted (40 µL of Texas Red and 100 mg BSA in 10 mL of PBS) in each well to stay for 1 h at room temperature. The cells were washed at least 3 times with 2 mL of PBS for 5 min. The nucleic staining with 13 µL of DAPI on each slide was completed. Cells were covered with a coverslip carefully without air bubbles. The slide dried horizontally overnight in a dark place that had airflow. The cells were photographed and video recorded by using Nikon Instruments A1 Confocal Laser Microscope Series. […]

[3] = Transmission electron microscopy, self-assembly; format: physicochemical; conditions: TEM, 30 μM, dried on grid overnight, not stained
Description: Transmission electron microscopy (TEM) was done on a LVEM 5D Microscope model (Delong instruments, Brno, Czech Republic) samples were prepared on an Ultrathin Carbon Film on Lacey Carbon Support Film with 400 mesh copper from Ted Pella. Dilute solutions of 30 μM concentration were used for the TEM analysis. Samples were dropped on grids, evaporated overnight, and not stained. They were incubated for approximately 2 h after thawing from a freezer (0 to −18 °C). Samples were air-dried, and images were obtained with a LVEM5 (Delong Instruments, US) 5 keV field emission gun. The camera was Zyla 5.5 Scientific CMOS with specifications of exposure 50–200 [ms], pixel readout 200 MHz—lowest noise, dynamic range 12-bit (low noise), and summing 1.

## N=C(N)NCCC[C@@H]1NC(=O)[C@H](C(c2ccccc2)c2ccccc2)NC(=O)[C@H](CCCNC(=N)N)NC(=O)[C@H](C(c2ccccc2)c2ccccc2)NC(=O)[C@H](CCCNC(=N)N)NC(=O)[C@H](C(c2ccccc2)c2ccccc2)NC(=O)[C@H](CCCNC(=N)N)NC(=O)[C@H](C(c2ccccc2)c2ccccc2)NC(=O)[C@H](CCCNC(=N)N)NC(=O)[C@H](C(c2ccccc2)c2ccccc2)NC1=O [[DipR]5] (cyclo([Dip]R[Dip]R[Dip]R[Dip]R[Dip]R))
CCRF-CEM cells; 24 h incubation
  reduction of cell proliferation: 64%
CCRF-CEM cells; 72 h incubation
  reduction of cell proliferation: 84%
LLC-PK1 cells
  cytotoxicity: no significant cytotoxicity
MDA-MB-231 cells [1]; N/P ratio 10, 24 h
  increase of cellular uptake of F’-siRNA vs siRNA alone: 30 fold
MDA-MB-231 cells [1]; N/P ratio 20, 24 h
  increase of cellular uptake of F’-siRNA vs siRNA alone: 50 fold
MDA-MB-231 cells [2]
  localization of F’-GpYEEI delivered by the peptide: mostly localized in the cytosol
[3]
  morphology of self-assembled structures: aggregation
  size of self-assembled structures: ≤ 30 nm
